Measurements reported in patent US6423855B1, “Cytoprotective compounds” (Virginia Commonwealth University, priority 1996, dated 2002).
Values after ≈ are worked out from the molar mass of the structure shown.

Assays:
[1] = tested on: rat dorsal root ganglion cells; test: cultured rat dorsal root ganglion cells exposed to human disc PLA2; assay type: cell-based
Experimental: Primary cultures of rat dorsal root ganglion cells were used. Cells were washed 3-times with media to remove serum. Then, PX-13 (20 uM) in HEPES buffer or a buffer control was applied to the cells. After 10 min of incubation, purified human disc PLA2 (activity 1 umol/min) was added and the cells were incubated for an additional 60-90 min. Cells were then observed, fixed, and photographed 1.5 hrs after addition of PLA2.

ischemic bowel = test: PLA2 release from ischemic bowel into media; settings: 24 hrs of ischemia
Text: The addition of PX-13 reduced the enzyme release by more than 80% during 24 hrs of ischemia.

[2] = tested on: reflex sympathetic dystrophy (RSD); test: topical cream in patients with reflex sympathetic dystrophy; assay type: in vivo, human
Experimental: A patient presents with severe RSD characterized by persistent pain and limitation of movement at the wrist joint. […] Another patient presents with a two year history of RSD in the knee joint. This patient previously received arthroscopic evaluations. This patient also had limited range of motion and became addicted to narcotics in an attempt to reduce pain. […] The reduction in pain is immediate and the increased range of motion occurs within 10-20 minutes. This patient, who had been unemployed for an extended period, eliminated intake of narcotics and returned to work. A third patient presented with RSD of the foot and ankle. This patient had no eversion or inversion of the foot.

pancreatin = test: degradation in vitro by pancreatin; assay type: in vitro ADME; settings: commercial pancreatic enzyme preparation (Sigma)
Text: The compounds of the present invention are not generally hydrolyzed by pancreatic enzymes and are different from glycerol-based compounds in terms of their chemistry and metabolism. […] The resistance of PX-13 and PX-18 to metabolism by pancreatic enzymes supports their stability after oral administration.

outer skin layers = test: skin moisturization (20 megahertz ultrasound); assay type: in vivo, human; settings: for Ultrasound Density Score: 30 minutes after application
Experimental: (§1) Two PX compounds PX-11 and PX-13 were evaluated in a cream formulation prepared under GMP. The chemicals were formulated into a bland cream and evaluated in the following human or mouse skin tests: (1) occluded patch test for irritation; (2) cell turnover rate; (3) transepidermal water loss; (4) skin moisturization; and (5) reduction in erythema after induced sunburn. The human skin tests were conducted on three volunteer female subjects, ages 29-32; a cream base with no added active was included as a control, while the untreated skin served as an additional basis for evaluation. Sunburn tests were performed on a total of 30 hairless albino mice. 4. Skin moisturization. Skin moisturization was measured using 20 megahertz ultrasound (the presence of moisture produces a density decrease in the outer skin layers), before and 30 minutes after product application to the forearm.

epidermal layer = test: transepidermal water loss; assay type: in vivo, human
Experimental: as §1, with “3. Transepidermal water loss. This parameter” for “4. Skin moisturization. Skin moisturization”, “by affixing a flow cell on the forearm site, applying the cream, waiting” for “using”, “minutes, then flushing the volume with nitrogen and noting the moisture content” for “megahertz ultrasound (the presence”, “of” for “of moisture produces a density decrease in”, “effluent gases.” for “outer skin layers), before and 30 minutes after product application to the forearm.”

human blood cells = test: preservation of whole blood (LDH and hemoglobin release); assay type: cell-based
Experimental: The effect of PX-13 and mepacrine on whole blood cell viability were tested as a function of time of storage.
Heparinized human blood was centrifuged at 400×g and the resulting plasma was removed and replaced with an equal volume of Dulbecco's medium. The resuspended cells were then incubated at 37° C. for 0-72 hrs. in a shaking water bath. At the indicated times, a 0.8 ml aliquot was removed and centrifuged at 400×g to sediment cells. Appearance of lactate dehydrogenase (LDH) and hemoglobin in the supernate was indicative of cell injury. PX-13 and mepacrine stabilized cells and decreased the injury as evidenced by diminished levels of LDH and hemoglobin in the supernate. This is expressed as percent protection.

[3] = tested on: PLA2 activity in extracts of rat bowel; test: PLA2 activity in extracts of rat bowel; assay type: biochemical
small bowel graft = test: small bowel transplantation ischemia-reperfusion injury; assay type: in vivo, rat
Experimental: (§2) These drugs were also tested for their ability to enhance the preservation of tissues stored for subsequent transplantation. The small bowel was removed from rats, washed free of luminal contents and the tissue stored in University of Wisconsin (UW) preservative media ±40 uM PX-13 or mepacrine for 48 hrs. The graft was then transplanted into rats with or without intravenous (IV) infusion of 20 mg/kg PX-13 or mepacrine at the time of transplantation.

clone D6 (P. falciparum) = test: 3H-hypoxanthine incorporation, P.falciparum clone D6; assay type: cell-based; settings: Plasmodium falciparum, D6, read-out: IC50 growth
[4] = peroxidation (malondialdehyde formation) of homogenized rat bowel
Experimental: as §2, with “of transplantation. Upon transplantation, the bowel is immediately injured as evidenced by tissue darkening within two minutes. […] Both PX-13 and mepacrine inhibit the peroxidation (malondialdehyde formation) of homogenized rat bowel, an indication that the membrane-stabilizing, PLA2-inhibitors, also have anti-oxidant activity.” for “of transplantation.”

[5] = patient 2, knee, cream combined with sympathetic blockade

Structure (SMILES): CCCCCCCC/C=C\CCCCCCCC(=O)OCC(COC(=O)CCCCCCC/C=C\CCCCCCCC)(COC(=O)CCCCCCC/C=C\CCCCCCCC)NCCS(=O)(=O)O [PX-13, 2-[Tris(oleoyloxymethyl)methylamino]-1-ethanesulfonic acid]
- cell morphology, compound alone ([1]; 20 uM alone): indistinguishable from control cultures
- cell morphology, compound + human disc PLA2 ([1]; 20 uM, PLA2 activity 1 umol/min, 60-90 min): indistinguishable from control cultures
- reduction of PLA2 enzyme release (ischemic bowel): more than 80%
- pain relief ([2]; patient 1, wrist, about 4% in cream of Example 15, topical): immediate pain relief
- pain and range of motion [2, 5]: decreases the patient's report of pain and provides a full range of motion
- time to increased range of motion [2, 5]: 10 to 20 min
- time to full eversion and inversion ([2]; patient 3, foot and ankle, about 4% cream): ≤ 20 min
- pain relief ([2]; patient 3, foot and ankle, about 4% in cream vehicle): immediate and complete pain relief
- degradation in vitro by pancreatin (pancreatin): resistant to degradation
- Ultrasound Density Score (outer skin layers; Subject 1, 7 = Best, 1 = Baseline): 1
- Ultrasound Density Score (outer skin layers; Subject 2): 2
- Ultrasound Density Score (outer skin layers; Subject 3): −1
- Ultrasound Density Score Total (outer skin layers; Total of 3 subjects, 7 = Best, 1 = Baseline): 2
- moisturization properties (outer skin layers; in vivo): not good moisturizers
- % Change in Transepidermal Water Loss (epidermal layer; forearm, 20 minutes after applying cream): −8.5%
- effect on water loss from the epidermal layer (epidermal layer; in vivo): functioned as an occluding moisturizer
- Percent Protection Hemoglobin (human blood cells; 20 uM, 48 hr): 55%
- Percent Protection LDH (human blood cells; 20 uM, 48 hr, 37° C.): 22%
- Percent Protection Hemoglobin (human blood cells; 20 uM, 72 hr): 25%
- Percent Protection LDH (human blood cells; 20 uM, 72 hr): 15%
- Percent Protection Hemoglobin (human blood cells; 80 uM, 48 hr): 72%
- Percent Protection LDH (human blood cells; 80 uM, 48 hr): 39%
- Percent Protection Hemoglobin (human blood cells; 80 uM, 72 hr): 54%
- Percent Protection LDH (human blood cells; 80 uM, 72 hr): 41%
- Percent Protection Hemoglobin (human blood cells; 160 uM, 48 hr): 77%
- Percent Protection LDH (human blood cells; 160 uM, 48 hr): 78%
- Percent Protection Hemoglobin (human blood cells; 160 uM, 72 hr): 80%
- Percent Protection LDH (human blood cells; 160 uM, 72 hr): 72%
- effectiveness as PLA2 inhibitor relative to mepacrine [3]: more than 2 log units
- inhibition of PLA2 activity [3]: inhibited
- gross and microscopic injury to tissue (small bowel graft; 40 uM in UW media 48 hrs, with or without 20 mg/kg IV at transplantation): dramatically reduced
- bowel color after transplantation (small bowel graft; rat, in vivo): maintained normal bowel color
- protection against ischemia and reperfusion injury (small bowel graft; small bowel transplantation): protect
- IC50 (clone D6 (P. falciparum)): 17 µg/mL (≈ 16.6 µM)
- peroxidation (malondialdehyde formation) [4]: inhibit
